Experimental findings from BindingDB's records for doi:10.1016/j.ejmech.2021.113242 (South China Agricultural University, 2021) are described below.

As usually defined, the IC50 is the concentration that inhibits the measured activity by half.

The nature of this test: Inhibition of spike glycoprotein S in SARS-CoV-2 pseudovirus infected human 293T/ACE2 cells assessed as inhibition of viral infection measured after 48 hrs by luciferase reporter gene assay. A general note: Reporter assays use an easily measured gene product as a stand-in for the process of interest.
Regarding `C[C@@H]1O[C@@H](O[C@H]2[C@H](O[C@H]3CC[C@]4(C)[C@H]5CC=C6[C@@H]7CC(C)(C)CC[C@]7(C(=O)Nc7ccccc7Cl)CC[C@@]6(C)[C@]5(C)CC[C@H]4C3(C)C)O[C@H](CO)[C@@H](O[C@@H]3O[C@@H](C)[C@H](O)[C@@H](O)[C@H]3O)[C@@H]2O)[C@H](O)[C@H](O)[C@H]1O`, the IC50 is 6.27 µM. The value for `C[C@@H]1O[C@@H](O[C@H]2[C@H](O[C@H]3CC[C@]4(C)[C@H]5CC=C6[C@@H]7CC(C)(C)CC[C@]7(C(=O)N(C)Cc7ccccc7)CC[C@@]6(C)[C@]5(C)CC[C@H]4C3(C)C)O[C@H](CO)[C@@H](O[C@@H]3O[C@@H](C)[C@H](O)[C@@H](O)[C@H]3O)[C@@H]2O)[C@H](O)[C@H](O)[C@H]1O` was 7.76 µM; that for `C[C@@H]1O[C@@H](O[C@H]2[C@H](O[C@H]3CC[C@]4(C)[C@H]5CC=C6[C@@H]7CC(C)(C)CC[C@]7(C(=O)OCc7ccccc7)CC[C@@]6(C)[C@]5(C)CC[C@H]4C3(C)C)O[C@H](CO)[C@@H](O[C@@H]3O[C@@H](C)[C@H](O)[C@@H](O)[C@H]3O)[C@@H]2O)[C@H](O)[C@H](O)[C@H]1O` was 16.8 µM. With `COc1ccc(NC(=O)[C@]23CCC(C)(C)C[C@H]2C2=CC[C@@H]4[C@@]5(C)CC[C@H](O[C@@H]6O[C@H](CO)[C@@H](O[C@@H]7O[C@@H](C)[C@H](O)[C@@H](O)[C@H]7O)[C@H](O)[C@H]6O[C@@H]6O[C@@H](C)[C@H](O)[C@@H](O)[C@H]6O)C(C)(C)[C@@H]5CC[C@@]4(C)[C@]2(C)CC3)cc1` the figure was 9.97 µM.

Take `C[C@@H]1O[C@@H](O[C@H]2[C@H](O[C@H]3CC[C@]4(C)[C@H]5CC=C6[C@@H]7CC(C)(C)CC[C@]7(C(=O)NCc7ccccc7)CC[C@@]6(C)[C@]5(C)CC[C@H]4C3(C)C)O[C@H](CO)[C@@H](O[C@@H]3O[C@@H](C)[C@H](O)[C@@H](O)[C@H]3O)[C@@H]2O)[C@H](O)[C@H](O)[C@H]1O`: the half-maximal inhibitory concentration (IC50) was 4.37 µM. With `C[C@@H]1O[C@@H](O[C@H]2[C@H](O[C@H]3CC[C@]4(C)[C@H]5CC=C6[C@@H]7CC(C)(C)CC[C@]7(C(=O)NCc7ccccc7Br)CC[C@@]6(C)[C@]5(C)CC[C@H]4C3(C)C)O[C@H](CO)[C@@H](O[C@@H]3O[C@@H](C)[C@H](O)[C@@H](O)[C@H]3O)[C@@H]2O)[C@H](O)[C@H](O)[C@H]1O` the figure was 9.57 µM; with `O=C(/C=C/c1ccc(O)c2oc(-c3ccc(O)c(O)c3)cc12)O[C@H](Cc1ccc(O)c(O)c1)C(=O)O`, 3.85 µM; with `C[C@@H]1O[C@@H](O[C@H]2[C@H](O[C@H]3CC[C@]4(C)[C@H]5CC=C6[C@@H]7CC(C)(C)CC[C@]7(C(=O)NCc7ccco7)CC[C@@]6(C)[C@]5(C)CC[C@H]4C3(C)C)O[C@H](CO)[C@@H](O[C@@H]3O[C@@H](C)[C@H](O)[C@@H](O)[C@H]3O)[C@@H]2O)[C@H](O)[C@H](O)[C@H]1O`, above 20 µM. The value for `COc1ccccc1CNC(=O)[C@]12CCC(C)(C)C[C@H]1C1=CC[C@@H]3[C@@]4(C)CC[C@H](O[C@@H]5O[C@H](CO)[C@@H](O[C@@H]6O[C@@H](C)[C@H](O)[C@@H](O)[C@H]6O)[C@H](O)[C@H]5O[C@@H]5O[C@@H](C)[C@H](O)[C@@H](O)[C@H]5O)C(C)(C)[C@@H]4CC[C@@]3(C)[C@]1(C)CC2` was 16.8 µM; that for `COc1cccc(NC(=O)[C@]23CCC(C)(C)C[C@H]2C2=CC[C@@H]4[C@@]5(C)CC[C@H](O[C@@H]6O[C@H](CO)[C@@H](O[C@@H]7O[C@@H](C)[C@H](O)[C@@H](O)[C@H]7O)[C@H](O)[C@H]6O[C@@H]6O[C@@H](C)[C@H](O)[C@@H](O)[C@H]6O)C(C)(C)[C@@H]5CC[C@@]4(C)[C@]2(C)CC3)c1` was 8.33 µM; that for `C[C@@H]1O[C@@H](O[C@H]2[C@H](O[C@H]3CC[C@]4(C)[C@H]5CC=C6[C@@H]7CC(C)(C)CC[C@]7(C(=O)NCCc7ccccc7)CC[C@@]6(C)[C@]5(C)CC[C@H]4C3(C)C)O[C@H](CO)[C@@H](O[C@@H]3O[C@@H](C)[C@H](O)[C@@H](O)[C@H]3O)[C@@H]2O)[C@H](O)[C@H](O)[C@H]1O` was 7.37 µM. The value for `COc1ccccc1NC(=O)[C@]12CCC(C)(C)C[C@H]1C1=CC[C@@H]3[C@@]4(C)CC[C@H](O[C@@H]5O[C@H](CO)[C@@H](O[C@@H]6O[C@@H](C)[C@H](O)[C@@H](O)[C@H]6O)[C@H](O)[C@H]5O[C@@H]5O[C@@H](C)[C@H](O)[C@@H](O)[C@H]5O)C(C)(C)[C@@H]4CC[C@@]3(C)[C@]1(C)CC2` was 5.54 µM; that for `C[C@@H]1O[C@@H](O[C@H]2[C@H](O[C@H]3CC[C@]4(C)[C@H]5CC=C6[C@@H]7CC(C)(C)CC[C@]7(C(=O)NCc7ccccn7)CC[C@@]6(C)[C@]5(C)CC[C@H]4C3(C)C)O[C@H](CO)[C@@H](O[C@@H]3O[C@@H](C)[C@H](O)[C@@H](O)[C@H]3O)[C@@H]2O)[C@H](O)[C@H](O)[C@H]1O` was above 20 µM; that for `C[C@@H]1O[C@@H](O[C@H]2[C@H](O[C@H]3CC[C@]4(C)[C@H]5CC=C6[C@@H]7CC(C)(C)CC[C@]7(C(=O)NCc7cccs7)CC[C@@]6(C)[C@]5(C)CC[C@H]4C3(C)C)O[C@H](CO)[C@@H](O[C@@H]3O[C@@H](C)[C@H](O)[C@@H](O)[C@H]3O)[C@@H]2O)[C@H](O)[C@H](O)[C@H]1O` was 5.89 µM. `C[C@@H]1O[C@@H](O[C@H]2[C@H](O[C@H]3CC[C@]4(C)[C@H]5CC=C6[C@@H]7CC(C)(C)CC[C@]7(C(=O)NCc7ccccc7Cl)CC[C@@]6(C)[C@]5(C)CC[C@H]4C3(C)C)O[C@H](CO)[C@@H](O[C@@H]3O[C@@H](C)[C@H](O)[C@@H](O)[C@H]3O)[C@@H]2O)[C@H](O)[C@H](O)[C@H]1O`: the IC50 stood at 6.32 µM. With `C[C@@H]1O[C@@H](O[C@H]2[C@H](O[C@H]3CC[C@]4(C)[C@H]5CC=C6[C@@H]7CC(C)(C)CC[C@]7(C(=O)NCc7ccccc7F)CC[C@@]6(C)[C@]5(C)CC[C@H]4C3(C)C)O[C@H](CO)[C@@H](O[C@@H]3O[C@@H](C)[C@H](O)[C@@H](O)[C@H]3O)[C@@H]2O)[C@H](O)[C@H](O)[C@H]1O` the figure was 5.68 µM; with `C[C@@H]1O[C@@H](O[C@H]2[C@H](O[C@H]3CC[C@]4(C)[C@H]5CC=C6[C@@H]7CC(C)(C)CC[C@]7(C(=O)Nc7ccccc7)CC[C@@]6(C)[C@]5(C)CC[C@H]4C3(C)C)O[C@H](CO)[C@@H](O[C@@H]3O[C@@H](C)[C@H](O)[C@@H](O)[C@H]3O)[C@@H]2O)[C@H](O)[C@H](O)[C@H]1O`, 18.1 µM. With `C[C@@H]1O[C@@H](O[C@H]2[C@H](O[C@H]3CC[C@]4(C)[C@H]5CC=C6[C@@H]7CC(C)(C)CC[C@]7(C(=O)NCCCc7ccccc7)CC[C@@]6(C)[C@]5(C)CC[C@H]4C3(C)C)O[C@H](CO)[C@@H](O[C@@H]3O[C@@H](C)[C@H](O)[C@@H](O)[C@H]3O)[C@@H]2O)[C@H](O)[C@H](O)[C@H]1O` the figure was 13.1 µM.
